Consider 10 compounds from PubChem BioAssay (NCI).

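Cells were grown in 96-well plates and exposed to each compound for 48 hours at five concentrations; endpoints were interpolated linearly between bracketing concentrations, or set to the highest concentration if not reached. The concentration for full growth arrest is given as TGI.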

Among the test systems are A549 NSCLC; EKVX NSCLC; SN12C renal; LOX IMVI melanoma; SF-539 CNS; UO-31 renal; SF-295 CNS; HS 578T breast; SK-MEL-2 melanoma; CAKI-1 renal; MALME-3M melanoma; MDA-MB-435; KM12 colon; NCI-H522 lung; MDA-MB-231 breast; DU-145 prostate; NCI-H23 lung; HCC-2998 colon.
Test in all cases: NCI-60 cell line screen, 48 h

For the compound `O=[N+]([O-])/C(C(Cl)=C(Cl)Cl)=C1/OCCS1`, the TGI with A549 NSCLC is 55.6 µM; with EKVX NSCLC, > 100 µM; in the assay on SN12C renal, 43.8 µM; with LOX IMVI melanoma it was 41.8 µM; in the assay on SF-539 CNS, 42.9 µM; with UO-31 renal, 40.2 µM. For the same compound, the TGI in the assay with SF-295 CNS is 90.5 µM; with HS 578T breast, 87.6 µM; with SK-MEL-2 melanoma, 57.2 µM; with CAKI-1 renal, 72.7 µM; in the assay with MALME-3M melanoma, 40.8 µM; with MDA-MB-435 it was 47.3 µM. Besides, the TGI is 94.3 µM with KM12 colon; 79.7 µM with NCI-H522 lung; 40.2 µM with MDA-MB-231 breast; > 100 µM in the assay with DU-145 prostate; 72.4 µM in the assay on NCI-H23 lung; > 100 µM in the assay with HCC-2998 colon.
In the case of `CN1CN(c2ccccc2)C2(CCN(CCCC(=O)c3cccs3)CC2)C1=O`, the TGI is > 100 µM with A549 NSCLC; 80.9 µM with EKVX NSCLC; > 100 µM with SN12C renal; > 100 µM in the assay on LOX IMVI melanoma; 64 µM with SF-539 CNS; > 100 µM in the assay on UO-31 renal. Moreover, the TGI is 85.6 µM in the assay on SF-295 CNS; > 100 µM in the assay on CAKI-1 renal; > 100 µM in the assay with MALME-3M melanoma; > 100 µM in the assay with KM12 colon; > 100 µM in the assay on NCI-H522 lung; > 100 µM in the assay on MDA-MB-231 breast. Also, the results for the TGI in the assay on DU-145 prostate, in the assay with NCI-H23 lung and with HCC-2998 colon were > 100 µM, > 100 µM and 38.9 µM, respectively.
`O=C(CC(C(=O)c1ccsc1)c1ccccc1)c1cccs1` (centres undefined): the TGI in the assay with EKVX NSCLC was > 100 µM; in the assay on SN12C renal, > 100 µM; with SF-539 CNS, > 100 µM; in the assay on UO-31 renal it was 95.7 µM; in the assay on SF-295 CNS, > 100 µM; in the assay on HS 578T breast, > 100 µM. Besides, the TGI in the assay on CAKI-1 renal was > 100 µM; in the assay on MDA-MB-435 it was > 100 µM; in the assay on KM12 colon it was 88.6 µM; in the assay with NCI-H522 lung, > 100 µM; in the assay with MDA-MB-231 breast, > 100 µM; in the assay with DU-145 prostate, > 100 µM. In addition, the TGI was 77.3 µM in the assay on NCI-H23 lung and > 100 µM in the assay with HCC-2998 colon.
For `C=CC12CN(C)C3C4COC(CC41)C1(C(=O)Nc4ccccc41)C32` (centres undefined), the TGI with A549 NSCLC, with EKVX NSCLC, in the assay with SN12C renal, with LOX IMVI melanoma, in the assay on SF-539 CNS and with UO-31 renal was > 200 µM throughout. Further, the TGI with SF-295 CNS, in the assay with SK-MEL-2 melanoma, with CAKI-1 renal, in the assay on MALME-3M melanoma, in the assay with KM12 colon and in the assay with NCI-H522 lung was > 200 µM each time. Besides, the TGI in the assay with NCI-H23 lung and with HCC-2998 colon was > 200 µM in each case.
As for `Cc1ccc(NC(=O)CC(=O)n2nc(C)c(N=Nc3ccc(S(=O)(=O)CCOS(=O)(=O)O)cc3)c2C)cc1`, the TGI with A549 NSCLC, in the assay with EKVX NSCLC, in the assay with LOX IMVI melanoma, with SF-539 CNS, in the assay on UO-31 renal and in the assay with SF-295 CNS was > 100 µM each time. The TGI in the assay with HS 578T breast, in the assay with SK-MEL-2 melanoma, with MALME-3M melanoma, in the assay with MDA-MB-435, in the assay on KM12 colon and in the assay on NCI-H522 lung was > 100 µM in each case. The TGI in the assay on MDA-MB-231 breast, with DU-145 prostate, with NCI-H23 lung and with HCC-2998 colon was > 100 µM each time.
For `OC(c1ccccc1)(c1ccccc1)c1cccnc1`, the TGI with A549 NSCLC, with EKVX NSCLC, with SN12C renal, with LOX IMVI melanoma, in the assay on SF-539 CNS and in the assay with UO-31 renal was > 100 µM each time. Further, the TGI with SF-295 CNS, in the assay on SK-MEL-2 melanoma, with CAKI-1 renal, in the assay with MALME-3M melanoma, in the assay on KM12 colon and in the assay on NCI-H23 lung was > 100 µM each time. Besides, the TGI with HCC-2998 colon is > 100 µM.
Regarding `COc1cc2c(c(OC)c1OC)C(=O)[C@H]1OC(=O)N[C@@H]21`, the TGI in the assay with A549 NSCLC, with SN12C renal, with LOX IMVI melanoma, in the assay with SF-539 CNS, with UO-31 renal and in the assay with SF-295 CNS was > 100 µM in each case. For the same compound, the TGI with HS 578T breast, with SK-MEL-2 melanoma, in the assay on CAKI-1 renal, in the assay on MDA-MB-435, with KM12 colon and in the assay with MDA-MB-231 breast was > 100 µM each time. The TGI in the assay with DU-145 prostate, with NCI-H23 lung and in the assay with HCC-2998 colon was > 100 µM each time.
For the compound `[O-]c1on[n+]2c1c(Nc1ccc(Cl)cc1)nc1ccccc12`, the TGI in the assay on A549 NSCLC, in the assay on EKVX NSCLC, in the assay with SN12C renal, with LOX IMVI melanoma, in the assay with SF-539 CNS and with UO-31 renal was > 100 µM throughout. For the same compound, the TGI with SF-295 CNS, in the assay on KM12 colon, in the assay on NCI-H522 lung, with NCI-H23 lung and in the assay on HCC-2998 colon was > 100 µM throughout.
Turning to `CC(C)=CCC/C(C)=C/Cc1c(O)ccc2c1[nH]c1cc(O)c(C)cc12`, the TGI was > 25 µM with A549 NSCLC; > 25 µM in the assay on SN12C renal; > 25 µM in the assay on LOX IMVI melanoma; 23.8 µM with SF-539 CNS; > 25 µM in the assay with UO-31 renal; > 25 µM in the assay with SK-MEL-2 melanoma. In addition, the TGI in the assay on MALME-3M melanoma, in the assay with KM12 colon, with NCI-H522 lung and in the assay on HCC-2998 colon was > 25 µM in each case.
In the case of `COC(=O)[C@@]12OC[C@]34C([C@@H](O)C1O)[C@@]1(C)CC(=O)C(O)=C(C)C1C[C@H]3OC(=O)[C@H](OC(=O)CC(C)C(F)(F)F)[C@H]42` (some centres undefined), the TGI is 0.492 µM with A549 NSCLC; 0.999 µM in the assay on EKVX NSCLC; 0.911 µM in the assay on SN12C renal; 0.067 µM in the assay on SF-539 CNS; 1.06 µM in the assay on UO-31 renal; 0.191 µM in the assay with SF-295 CNS. The TGI in the assay on SK-MEL-2 melanoma came to 0.362 µM; in the assay on CAKI-1 renal, 1.07 µM; with MALME-3M melanoma it was 0.0438 µM; in the assay with KM12 colon, 0.563 µM; with NCI-H522 lung it was 0.088 µM; with NCI-H23 lung, 0.0717 µM. Moreover, the TGI in the assay with HCC-2998 colon stood at 0.0599 µM.
